Data as given in ChEMBL document CHEMBL1201862, “PubChem BioAssay data set” (2004).
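Step 1: Grow cells in 96-well plates. Step 2: Expose to compound for 48 hours at 5 concentrations. Step 3: Interpolate endpoints linearly; if unreached, use highest concentration. Here, GI50 denotes the concentration required for 50% inhibition of growth.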 Activity calls are given as the source filed them. Rule as the data show it: active = GI50 up to about 1.1 µM and inactive = higher.

Key:
Assay in all cases: inhibition of tumour cell growth, NCI panel, 48 h
[1] = test system: 786-0
[2] = test system: HL-60
[3] = test system: HOP-62
[4] = test system: KM12
[5] = test system: LOX IMVI
[6] = test system: MDA-MB-435
[7] = test system: MOLT-4
[8] = test system: Malme-3M
[9] = test system: NCI-H226
[10] = test system: NCI-H23
[11] = test system: NCI-H460
[12] = test system: OVCAR-4
[13] = test system: SF-295
[14] = test system: SK-MEL-28
[15] = test system: SK-MEL-2
[16] = test system: SN12C
[17] = test system: SW-620
[18] = test system: U-251
[19] = test system: UACC-62
[20] = test system: UO-31

Structure (SMILES) | GI50 [1] | GI50 [2] | GI50 [3] | GI50 [4] | GI50 [5] | GI50 [6] | GI50 [7] | GI50 [8] | GI50 [9] | GI50 [10] | GI50 [11] | GI50 [12] | GI50 [13] | GI50 [14] | GI50 [15] | GI50 [16] | GI50 [17] | GI50 [18] | GI50 [19] | GI50 [20]
Oc1ccccc1-c1nn2c(CCCCCCCCc3nnc4sc(-c5ccccc5O)nn34)nnc2s1 | 14.7 µM (inactive) | 1.03 µM (active) | 8.71 µM (inactive) | 21 µM (inactive) | 9.46 µM (inactive) | 5.18 µM (inactive) | 8.39 µM (inactive) | 35 µM (inactive) | > 48.9 µM (inactive) | 18.8 µM (inactive) | 8.05 µM (inactive) | 14.1 µM (inactive) | 9.98 µM (inactive) | 24.6 µM (inactive) | 15.9 µM (inactive) | 19.5 µM (inactive) | 27.9 µM (inactive) | 12.9 µM (inactive) | 7.06 µM (inactive) | 4.11 µM (inactive)
O=C(N/N=C/C=C/c1ccc([N+](=O)[O-])o1)c1ccc(Br)s1 | 19.1 µM (inactive) | 34.1 µM (inactive) | 51.2 µM (inactive) | 17.8 µM (inactive) | 19.9 µM (inactive) | 25.4 µM (inactive) | 13.3 µM (inactive) | 14.9 µM (inactive) | 22.2 µM (inactive) | 14.9 µM (inactive) | 42.7 µM (inactive) | 18.9 µM (inactive) | > 100 µM (inactive) | 22.4 µM (inactive) | 23.3 µM (inactive) | 29.6 µM (inactive) | 16.1 µM (inactive) | 28.1 µM (inactive) | 23.2 µM (inactive) | 21 µM (inactive)
O=C1c2ccccc2-c2nnc(-c3ccc([N+](=O)[O-])cc3)cc21 | > 10 µM (inactive) | > 10 µM (inactive) | > 10 µM (inactive) | > 10 µM (inactive) | > 10 µM (inactive) | > 10 µM (inactive) | > 10 µM (inactive) | > 10 µM (inactive) | > 10 µM (inactive) | > 10 µM (inactive) | > 10 µM (inactive) | > 10 µM (inactive) | > 10 µM (inactive) | > 10 µM (inactive) | > 10 µM (inactive) | > 10 µM (inactive) | > 10 µM (inactive) | > 10 µM (inactive) | > 10 µM (inactive) | > 10 µM (inactive)
O=C(O)CSCc1cc2c(O)c(c1)Cc1cc(CSCC(=O)O)cc(c1O)Cc1cc(CSCC(=O)O)cc(c1O)Cc1cc(CSCC(=O)O)cc(c1O)C2 | > 100 µM (inactive) | > 100 µM (inactive) | > 100 µM (inactive) | > 100 µM (inactive) | > 100 µM (inactive) | 61.1 µM (inactive) | > 100 µM (inactive) | > 100 µM (inactive) | 89.5 µM (inactive) | > 100 µM (inactive) | > 100 µM (inactive) | > 100 µM (inactive) | > 100 µM (inactive) | > 100 µM (inactive) | > 100 µM (inactive) | > 100 µM (inactive) | > 100 µM (inactive) | > 100 µM (inactive) |  | > 100 µM (inactive)
O=C1C(Cl)=C(N2CCC[C@H]2CO)C(=O)c2c(O)ccc(O)c21 | 2.03 µM (inactive) | 0.0724 µM (active) | > 10 µM (inactive) | 4.34 µM (inactive) | 2.09 µM (inactive) | 1.82 µM (inactive) | 0.337 µM (active) | 1.7 µM (inactive) | > 10 µM (inactive) | 2.29 µM (inactive) | 8.63 µM (inactive) | 2.16 µM (inactive) | > 10 µM (inactive) | 1.55 µM (inactive) | 2.53 µM (inactive) | 1.71 µM (inactive) | 1.7 µM (inactive) | > 10 µM (inactive) | 2.04 µM (inactive) | 2.24 µM (inactive)
